# Measured values from patent publication EP1189923B1, “AROMATIC AND HETEROCYCLIC DERIVATIVES OF PHYTOSTEROLS AND/OR PHYTOSTANOLS FOR USE IN TREATING OR PREVENTING CARDIOVASCULAR DISEASE” (Forbes Medi-Tech Inc., priority 1999, dated 2000).
# How the values were obtained:
# [1] = in vivo; cited from earlier work
# apo E-KO mice = assay: Plasma triglyceride levels in apo E-KO mice fed experimental diets; format: in vivo; conditions: compounds in diet
# Method: Thus, as outlined below, 40 male apo E-KO mice were divided into 5 groups of 8 with similar mean plasma cholesterol level and body weight. The animals were fed with the experimental diets for 14 weeks.
# The animals were bled from the tail at base line and during the experiment for measurement of plasma lipid levels. At the end of the study, the mice were sacrificed using CO2 gas and taking blood from the heart.
# Plasma triglyceride levels were measured in clinical lab At St. Paul's Hospital.
compound,measurement,setting,value
O=C(O)c1cccnc1 [nicotinic acid],"elevation of the ""good"" HDL cholesterol",[1],20-30%
same,effect on plasma triglyceride levels,apo E-KO mice,reduced triglyceride levels
